In brackets after ≈: the same amount, converted by molar mass. Marks after values point to notes of the source that are not given here.
What was measured:
[1] = test system: K. pneumoniae ATCC 700603; experiment: microbe, parasite or virus in culture; conditions: for MIC: Klebsiella pneumoniae
Method: MIC determinations were performed using the broth microdilution method and in line with CLSI guidelines M07 and M100 (refs. [37],[38]). Bacterial inocula were prepared by diluting a 0.5 McFarland suspension in CAMHB or lysogeny broth (LB) specifically for A. baylyi isolates. […] MIC values of all of the tested antibiotics were read as the lowest compound concentration inhibiting bacterial growth by naked eye or beyond which the OD600 ceased to decrease.

[2] = target: CYP3A4 (Homo sapiens, UniProt P08684); experiment: CYP inhibition; type: in vitro ADME
Chain of CYP3A4 (P08684 whole entry): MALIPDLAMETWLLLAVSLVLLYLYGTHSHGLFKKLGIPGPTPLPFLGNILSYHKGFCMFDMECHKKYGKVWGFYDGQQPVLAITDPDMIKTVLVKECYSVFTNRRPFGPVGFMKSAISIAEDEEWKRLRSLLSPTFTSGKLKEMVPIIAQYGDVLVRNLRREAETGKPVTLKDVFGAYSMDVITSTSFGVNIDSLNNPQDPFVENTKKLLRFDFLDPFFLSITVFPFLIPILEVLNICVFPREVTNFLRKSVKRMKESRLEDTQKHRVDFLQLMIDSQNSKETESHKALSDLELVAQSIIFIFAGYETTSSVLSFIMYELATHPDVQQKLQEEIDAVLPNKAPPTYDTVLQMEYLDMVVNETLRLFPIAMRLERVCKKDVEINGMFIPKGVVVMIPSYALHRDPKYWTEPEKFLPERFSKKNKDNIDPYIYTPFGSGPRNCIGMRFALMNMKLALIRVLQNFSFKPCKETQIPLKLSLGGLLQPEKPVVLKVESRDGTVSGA

[3] = test system: panel of 50 off-targets; experiment: Off-target activity screening, number of hits in panel of 50; type: binding; conditions: > 30% inhibition at 10 μM
[4] = GSH adduct; type: in vitro ADME
[5] = Fraction unbound in mouse plasma; type: in vitro ADME
[6] = test system: A. baumannii; experiment: Immunocompetent mouse septicaemia infection model; type: in vivo
Method: Septicaemia was induced in CD-1 immunocompetent male mice by an intraperitoneal inoculation of a bacterial suspension of the tested A. baumannii isolate at a challenge of approximately 1–2 log[CFU] above the determined median lethal dose (resulting in 10^5 to 10^7 CFU per mouse). […] Mouse survival was followed over 6–7 days. GraphPad Prism 8 was used for graphical presentation of the data. Septicaemia studies with mutant derivative isolates obtained in resistance studies were performed as described above, using a bacterial challenge as determined for the parental isolate.

[7] = test system: GABA-A (benzodiazapine binding site); experiment: Off-target screening (CEREP); set-up: species or system rat; conditions: 10 µM, duplicates
Method: Supplementary Table 1 │ Off-target activity screening f or MCP compou nds […]
The assays given in the table above were conducted at Eurofins CEREP S A (Celle-Lévescault, France) and were run as single point measurements in duplicates in the presence of 10 µ M of the test compound and reported as percent inhibition of the radioligand signal or control enzymatic activity. n.d., not

[8] = murine septicaemia, MDR A. baumannii APV00535 (ACC00535), MCP 0.1 mg/kg, mark per mouse (10 mice), study VDD3948

Compound: CN1C(=O)[C@H](CCCN)NC(=O)[C@H](CCCN)NCc2ccccc2Sc2ccccc2CNC(=O)[C@@H]1Cc1c[nH]c2ccccc12 [RO7036668]
- MIC ([1]; ATCC700603, CAMHB, mode of at least three replicates (RO7036668 one replicate)): > 64 µg/mL
- MIC 100% ([1]; Study ROC004): >64 µg/mL
- CYP inh. (3A4) [2]: 18 µM

Compound: CN1C(=O)[C@H](CCCCN)NC(=O)[C@H](CCCN)NCc2cccnc2Sc2c(Cl)ccc(Cl)c2CNC(=O)[C@@H]1Cc1c[nH]c2ccccc12 [RO7075573]
- MIC ([1]; ATCC700603): > 64 µg/mL
- MIC 100% ([1]; Study LGC281440): 32 µg/mL (≈ 43.3 µM)
- MIC 100% ([1]; Study LGC282160): >64 µg/mL
- MIC 100% ([1]; Study LGC284879): >64 µg/mL
- MIC 100% ([1]; Study LGC285582): >64 µg/mL
- MIC 100% ([1]; Study LGC286210): >64 µg/mL
- MIC 100% ([1]; Study LGC293598): >64 µg/mL
- MIC 100% ([1]; Study LGC294355): >64 µg/mL
- MIC 100% ([1]; Study LGC295147): >64 µg/mL
- MIC 100% ([1]; Study LGC296813): >64 µg/mL
- MIC 100% ([1]; Study LGC299544): >64 µg/mL
- MIC 100% ([1]; Study LGC301026): >64 µg/mL
- MIC 100% ([1]; Study LGC308175): >64 µg/mL
- MIC 100% ([1]; Study ROC010): >64 µg/mL
- MIC 100% ([1]; Study ROC012): >64 µg/mL
- Off-target hits [3]: 1 #
- CYP inh. (3A4) [2]: 16 µM
- GSH adduct [4]: Clean
- fu (m), fraction unbound in mouse plasma [5]: 17%
- Protection in lethal sepsis model ([6]; ACC00535, immunocompetent mice, s.c. doses between 0.1 and 0.3 mg per kg at 1 h and 5 h): complete protection
- Survivors, 2016-02-03 ([6]; murine septicaemia, MDR A. baumannii APV00535 (ACC00535), MCP 0.01 mg/kg, mark per mouse (10 mice), study VDD3948): 1
- Survivors, 2016-02-03 ([6]; murine septicaemia, MDR A. baumannii APV00535 (ACC00535), MCP 0.03 mg/kg, mark per mouse (10 mice), study VDD3948): 1
- Survivors, 2016-02-03 [6, 8]: 1
- Survivors, 2016-02-04 [6, 8]: 1
- percent inhibition [7]: -20%

Reference: article PMC10794144, “A novel antibiotic class targeting the lipopolysaccharide transporter” (Nature, 2024)
